Assay results published in PMC4503722, “Novel Phenotypic Outcomes Identified for a Public Collection of Approved Drugs from a Publicly Accessible Panel of Assays” (PLoS ONE, 2015).
Read-outs that look alike come from different tables or passages of the source.

Legend:
Assay in all cases: cells
Type in all cases: cell-based
DLD-1 = conditions: for IC50: read-out: Basal_Viability ATP DLD-1 summarized IC50
Colo320 = conditions: for IC50: read-out: Basal_Viability ATP Colo 320 summarized IC50
SW480 = conditions: for IC50: read-out: Basal_Viability ATP SW480 summarized IC50
SNU-C1 = conditions: for IC50: read-out: Basal_Viability ATP SNU-C1 summarized IC50
HT-29 = conditions: for IC50: read-out: Basal_Viability ATP HT-29 summarized IC50
HCT116 = conditions: for IC50: read-out: Basal_Viability ATP HCT116 summarized IC50
RKO = conditions: for IC50: read-out: Basal_Viability ATP RKO summarized IC50
[1] = system: HCT116 cells treated with a GSK3β inhibitor; conditions: for IC50: read-out: GSK3b inh pretreated_Viability ATP HCT116 summarized IC50
HeLa cells = system: HeLa cells
[2] = assay number 26, GSK3b inhibitor pretreated

N#CC(C#N)=Cc1ccc(O)c(O)c1 [NCGC00016043-08]
IC50/EC50, Basal_Viability ATP DLD-1 (assay number 23) (DLD-1; basal): > 20 µM
IC50/EC50, Basal_Viability ATP Colo 320 (assay number 27) (Colo320; basal): 6.7406 µM
IC50/EC50, Basal_Viability ATP SW480 (assay number 24) (SW480; basal): > 20 µM
IC50/EC50, Basal_Viability ATP SNU-C1 (assay number 30) (SNU-C1; basal): > 20 µM
IC50/EC50, Basal_Viability ATP HT-29 (assay number 28) (HT-29; basal): > 20 µM
IC50/EC50, Basal_Viability ATP HCT116 (assay number 25) (HCT116; basal): > 20 µM
IC50/EC50, Basal_Viability ATP RKO (assay number 29) (RKO; basal): 3.7756 µM
IC50/EC50, GSK3b inh pretreated_Viability ATP HCT116 (assay number 26) ([1]; GSK3b inh pretreated): > 20 µM

O=Cc1ccc(O)c(O)c1O [NCGC00262933-01]
IC50/EC50, Basal_Viability ATP DLD-1 (assay number 23) (DLD-1): > 20 µM
IC50/EC50, Basal_Viability ATP Colo 320 (assay number 27) (Colo320): 9.0837 µM
IC50/EC50, Basal_Viability ATP SW480 (assay number 24) (SW480): 11.3319 µM
IC50/EC50, Basal_Viability ATP SNU-C1 (assay number 30) (SNU-C1): > 20 µM
IC50/EC50, Basal_Viability ATP HT-29 (assay number 28) (HT-29): > 20 µM
IC50/EC50, Basal_Viability ATP HCT116 (assay number 25) (HCT116): > 20 µM
IC50/EC50, Basal_Viability ATP RKO (assay number 29) (RKO): 6.232 µM
IC50/EC50, GSK3b inh pretreated_Viability ATP HCT116 (assay number 26) [1]: 0.1412 µM
IC50/EC50, Hela CellCycMod PI 2N (assay number 14) (HeLa cells): > 10 µM
IC50/EC50, Hela CellCycMod PI 4N (assay number 16) (HeLa cells): > 10 µM
IC50/EC50, Hela CellCycMod PI Cell Number (assay number 18) (HeLa cells): > 10 µM
IC50/EC50, Hela CellCycMod PI MI (assay number 17) (HeLa cells): > 10 µM
IC50/EC50, Hela CellCycMod PI S Phase (assay number 15) (HeLa cells): > 10 µM

O=C(Nc1ccc(Cl)cc1)Nc1ccc(Cl)c(C(F)(F)F)c1 [NCGC00185743-02]
IC50 (DLD-1; assay number 23, basal): 0.027 µM
IC50 (Colo320; assay number 27, basal): 0.003 µM
IC50 (SW480; assay number 24, basal): 0.009 µM
IC50 (SNU-C1; assay number 30, basal): 0.009 µM
IC50 (HT-29; assay number 28, basal): 0.001 µM
IC50 (HCT116; assay number 25, basal): 0.003 µM
IC50 (RKO; assay number 29, basal): 0.003 µM
IC50 [1, 2]: 0.003 µM

CCCCCCCCCCCCCCCCC(C(=O)O)C(O)(CC(=O)O)C(=O)O (centres unmarked) [NCGC00167547-02]
Basal_Viability ATP DLD-1 IC50/EC50 (DLD-1; assay number 23, basal): 4.2832 µM
Basal_Viability ATP Colo 320 IC50/EC50 (Colo320; assay number 27, basal): 1.3621 µM
Basal_Viability ATP SW480 IC50/EC50 (SW480; assay number 24, basal): 1.1952 µM
Basal_Viability ATP SNU-C1 IC50/EC50 (SNU-C1; assay number 30, basal): 1.3613 µM
Basal_Viability ATP HT-29 IC50/EC50 (HT-29; assay number 28, basal): 4.0996 µM
Basal_Viability ATP HCT116 IC50/EC50 (HCT116; assay number 25, basal): 8.6847 µM
Basal_Viability ATP RKO IC50/EC50 (RKO; assay number 29, basal): 3.4822 µM
GSK3b inh pretreated_Viability ATP HCT116 IC50/EC50 [1, 2]: 4.3382 µM

Cc1nnc(NS(=O)(=O)c2ccc(N)cc2)s1 [NCGC00016407-08]
IC50 (DLD-1; assay number 23, basal): > 20 µM
IC50 (Colo320; assay number 27, basal): > 20 µM
IC50 (SW480; assay number 24, basal): > 20 µM
IC50 (SNU-C1; assay number 30, basal): > 20 µM
IC50 (HT-29; assay number 28, basal): > 20 µM
IC50 (HCT116; assay number 25, basal): > 20 µM
IC50 (RKO; assay number 29, basal): > 20 µM
IC50 [1, 2]: > 20 µM

C1CCC(C(CC2CCCCN2)C2CCCCC2)CC1.O=C(O)/C=C\C(=O)O (centres unmarked) [NCGC00018261-06]
Basal_Viability ATP DLD-1 IC50/EC50 (DLD-1): > 20 µM
Basal_Viability ATP Colo 320 IC50/EC50 (Colo320): 8.8632 µM
Basal_Viability ATP SW480 IC50/EC50 (SW480): 5.7603 µM
Basal_Viability ATP SNU-C1 IC50/EC50 (SNU-C1): 2.48 µM
Basal_Viability ATP HT-29 IC50/EC50 (HT-29): 6.8652 µM
Basal_Viability ATP HCT116 IC50/EC50 (HCT116): > 20 µM
Basal_Viability ATP RKO IC50/EC50 (RKO): 7.8491 µM
GSK3b inh pretreated_Viability ATP HCT116 IC50/EC50 [1]: 7.4207 µM

Cc1cc2nc3c(=O)[nH]c(=O)nc-3n(C[C@H](O)[C@H](O)[C@H](O)COP(=O)([O-])OP(=O)([O-])OC[C@H]3O[C@@H](n4cnc5c(N)ncnc54)[C@H](O)[C@H]3O)c2cc1C.O.[Na+].[Na+] [NCGC00344578-01]
Basal_Viability ATP DLD-1 IC50/EC50 (DLD-1; assay number 23, basal): > 20 µM
Basal_Viability ATP Colo 320 IC50/EC50 (Colo320; assay number 27, basal): > 20 µM
Basal_Viability ATP SW480 IC50/EC50 (SW480; assay number 24, basal): > 20 µM
Basal_Viability ATP SNU-C1 IC50/EC50 (SNU-C1; assay number 30, basal): > 20 µM
Basal_Viability ATP HT-29 IC50/EC50 (HT-29; assay number 28, basal): > 20 µM
Basal_Viability ATP HCT116 IC50/EC50 (HCT116; assay number 25, basal): > 20 µM
Basal_Viability ATP RKO IC50/EC50 (RKO; assay number 29, basal): > 20 µM
GSK3b inh pretreated_Viability ATP HCT116 IC50/EC50 [1, 2]: > 20 µM

Cc1ccc(C(=O)c2cc(O)c(O)c([N+](=O)[O-])c2)cc1 [NCGC00181767-03]
Basal_Viability ATP DLD-1 IC50/EC50 (DLD-1; assay number 23, basal): 6.142 µM
Basal_Viability ATP Colo 320 IC50/EC50 (Colo320; assay number 27, basal): 2.503 µM
Basal_Viability ATP SW480 IC50/EC50 (SW480; assay number 24, basal): 4.644 µM
Basal_Viability ATP SNU-C1 IC50/EC50 (SNU-C1; assay number 30, basal): 4.536 µM
Basal_Viability ATP HT-29 IC50/EC50 (HT-29; assay number 28, basal): > 20 µM
Basal_Viability ATP HCT116 IC50/EC50 (HCT116; assay number 25, basal): 2.292 µM
Basal_Viability ATP RKO IC50/EC50 (RKO; assay number 29, basal): 1.876 µM
GSK3b inh pretreated_Viability ATP HCT116 IC50/EC50 [1, 2]: 0.265 µM

COc1ccc(CN2CCN(C(c3ccc(F)cc3)c3ccc(F)cc3)CC2)c(OC)c1OC.Cl.Cl [NCGC00164543-02]
Basal_Viability ATP DLD-1 IC50/EC50 (DLD-1; assay number 23): 3.1331 µM
Basal_Viability ATP Colo 320 IC50/EC50 (Colo320; assay number 27): 2.817 µM
Basal_Viability ATP SW480 IC50/EC50 (SW480; assay number 24): 3.3247 µM
Basal_Viability ATP SNU-C1 IC50/EC50 (SNU-C1; assay number 30): 0.4428 µM
Basal_Viability ATP HT-29 IC50/EC50 (HT-29; assay number 28): 2.926 µM
Basal_Viability ATP HCT116 IC50/EC50 (HCT116; assay number 25, basal): 1.7018 µM
Basal_Viability ATP RKO IC50/EC50 (RKO; assay number 29): 3.6952 µM
GSK3b inh pretreated_Viability ATP HCT116 IC50/EC50 [1, 2]: 2.7677 µM
